target: bovine cardiac myosin (Bos taurus (Bovine), UniProt Q9BE39); assay: Myosin inhibitory potency: PK/LDH-coupled ATPase assay on bovine skinned cardiac myofibrils; type: biochemical; conditions: pCa=6.25, 50 μM ATP, 25° C., read-out: myosin inhibition activity IC50
Description: The average rates of ATPase inhibition, and the IC50 values are determined by Victor Nivo multimode plate reader (PerkinElmer, USA).
As to the assays background, a biochemical assay couples the ATPase activity of bovine cardiac myosin to an enzymatic coupling system consisting of pyruvate kinase and lactate dehydrogenase (PK/LDH) and monitoring the absorbance decrease of NADH (at 340 nm) as a function of time to measure the inhibitory ability of small molecule agents. In the assay, PK converts ADP (Adenosine diphosphate) to ATP (adenosine triphosphate) by converting PEP (phosphoenolpyruvate) to pyruvate. Pyruvate is then converted to lactate by LDH by converting NADH (nicotinamide adenine dinucleotide) to NAD (oxidized nicotinamide adenine dinucleotide).
In our experiments, bovine skinned cardiac myofibrils were isolated from the frozen bovine left ventricle as myosin's source in the ATPase assay. The calcium concentration that achieves a 50% (pCa50 or pCa=6.25) activation of the myofibril system was chosen as the final condition for assessing the activation activity according to the literature (DOI: 10.1074/jbc.M117.776815). Myofibrils ATPase activity was measured in a buffered solution containing 12 mM PIPES (piperazine-N, N′-bis(2-ethane sulfonic acid) and 2 mM magnesium chloride at pH 6.8 (PM12 buffer). Final assay conditions were 1 mg/mL of bovine cardiac myofibrils, 1:20 of stock PK/LDH (Sigma-Aldrich, Cat No. P0294-5X5ML), 50 μM ATP, 1 mM DTT (dithiothreitol), 0.75 mM NADH, 1.5 mM PEP at pCa50 (pCa=6.25). Compounds were dissolved in DMSO (dimethyl sulfoxide). Serial dilution of compounds was created such that the final desired concentration of compound would be achieved in a volume of 150 μL with a fixed DMSO concentration of 2% (v/v). 75 μL of a solution containing bovine cardiac myofibrils, PK/LDH, and calcium were added to a 96 well plate for a 7 point dose-response. In some circumstances, 10 point-response was used to repeat the ATPase assays on compounds of interest. Compounds were added to the myofibrils solution and incubated for 5 minutes. The enzymatic reaction was started with the addition of 75 μL of a solution containing ATP, PEP, NADH, compounds, and calcium. The ATPase activity was measured by reading absorbance at 340 nm in a PerkinElmer Victor Nivo plate reader at 25° C. in kinetic mode for 15 minutes using clear bottom plates. The slopes of the absorbance changes as a function of time for the first 10 minutes were normalized to slopes on the control wells containing all reagents, including DMSO, but without compounds. This normalized rate was then plotted as a function of small molecule concentration in GraphPad prism 9. The data were fitted to a four-parameter fit, and IC50 was calculated using Graphpad Prism 9.

Chain of bovine cardiac myosin (Q9BE39 whole entry): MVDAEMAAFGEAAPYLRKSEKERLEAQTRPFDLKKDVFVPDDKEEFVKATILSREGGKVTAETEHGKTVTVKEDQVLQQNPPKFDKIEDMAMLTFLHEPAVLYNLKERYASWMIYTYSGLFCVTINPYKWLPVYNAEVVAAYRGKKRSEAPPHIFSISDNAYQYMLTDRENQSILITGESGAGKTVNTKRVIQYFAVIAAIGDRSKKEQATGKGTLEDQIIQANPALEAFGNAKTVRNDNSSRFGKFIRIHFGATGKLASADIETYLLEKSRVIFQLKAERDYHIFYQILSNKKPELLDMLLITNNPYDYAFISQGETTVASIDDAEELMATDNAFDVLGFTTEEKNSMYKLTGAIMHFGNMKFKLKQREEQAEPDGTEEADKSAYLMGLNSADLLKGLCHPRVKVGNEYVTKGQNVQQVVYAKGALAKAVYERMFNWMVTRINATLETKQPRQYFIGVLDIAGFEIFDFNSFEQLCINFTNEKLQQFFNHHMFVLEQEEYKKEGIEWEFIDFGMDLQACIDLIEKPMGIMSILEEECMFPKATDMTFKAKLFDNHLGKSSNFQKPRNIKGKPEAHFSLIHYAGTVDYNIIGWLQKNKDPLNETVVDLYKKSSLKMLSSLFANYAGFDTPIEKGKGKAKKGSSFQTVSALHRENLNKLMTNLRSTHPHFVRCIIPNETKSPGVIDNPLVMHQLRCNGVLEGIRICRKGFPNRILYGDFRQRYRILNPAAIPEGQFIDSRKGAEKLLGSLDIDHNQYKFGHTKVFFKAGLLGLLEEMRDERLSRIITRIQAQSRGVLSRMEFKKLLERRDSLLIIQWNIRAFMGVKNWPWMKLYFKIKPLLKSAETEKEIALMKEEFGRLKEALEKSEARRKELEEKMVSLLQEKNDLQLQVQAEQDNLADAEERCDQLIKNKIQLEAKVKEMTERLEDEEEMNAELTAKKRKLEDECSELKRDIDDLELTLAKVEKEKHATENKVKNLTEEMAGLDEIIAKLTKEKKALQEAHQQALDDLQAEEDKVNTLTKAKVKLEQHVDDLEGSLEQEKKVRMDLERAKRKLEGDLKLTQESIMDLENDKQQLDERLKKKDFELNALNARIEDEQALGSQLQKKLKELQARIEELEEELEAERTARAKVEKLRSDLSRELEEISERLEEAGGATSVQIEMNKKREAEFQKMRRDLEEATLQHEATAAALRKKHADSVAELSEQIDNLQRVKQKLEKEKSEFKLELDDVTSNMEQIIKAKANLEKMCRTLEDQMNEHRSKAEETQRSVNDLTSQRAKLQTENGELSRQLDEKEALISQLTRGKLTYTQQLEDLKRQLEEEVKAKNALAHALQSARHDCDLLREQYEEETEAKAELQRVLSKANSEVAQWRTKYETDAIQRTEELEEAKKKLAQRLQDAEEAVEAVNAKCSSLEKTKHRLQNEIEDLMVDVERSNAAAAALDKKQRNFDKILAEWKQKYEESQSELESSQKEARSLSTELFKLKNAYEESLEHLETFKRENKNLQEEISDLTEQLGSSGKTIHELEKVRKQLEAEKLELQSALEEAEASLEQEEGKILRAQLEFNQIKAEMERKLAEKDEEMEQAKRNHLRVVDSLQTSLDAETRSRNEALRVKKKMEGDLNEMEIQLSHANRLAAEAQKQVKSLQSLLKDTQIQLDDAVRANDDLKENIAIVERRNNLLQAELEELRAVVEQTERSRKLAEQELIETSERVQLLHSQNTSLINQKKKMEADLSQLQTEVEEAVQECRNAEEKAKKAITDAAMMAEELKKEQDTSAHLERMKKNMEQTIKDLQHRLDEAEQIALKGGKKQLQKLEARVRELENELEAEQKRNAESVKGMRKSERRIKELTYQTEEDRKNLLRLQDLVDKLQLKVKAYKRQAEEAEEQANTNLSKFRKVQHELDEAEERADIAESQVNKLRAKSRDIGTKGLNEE
Chain of bovine cardiac myosin (P85100 whole entry partner): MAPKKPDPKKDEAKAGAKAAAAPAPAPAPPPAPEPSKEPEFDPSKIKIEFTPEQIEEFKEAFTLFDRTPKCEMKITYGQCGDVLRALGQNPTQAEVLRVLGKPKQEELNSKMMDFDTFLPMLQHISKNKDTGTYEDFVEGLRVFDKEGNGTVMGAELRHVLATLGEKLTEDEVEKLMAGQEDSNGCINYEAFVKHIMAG
Chain of bovine cardiac myosin (Q3SZE5 whole entry partner): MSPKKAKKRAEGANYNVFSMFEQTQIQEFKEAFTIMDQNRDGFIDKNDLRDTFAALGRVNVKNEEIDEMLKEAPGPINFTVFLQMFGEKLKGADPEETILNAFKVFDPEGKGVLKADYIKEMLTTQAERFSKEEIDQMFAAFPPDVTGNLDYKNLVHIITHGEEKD

IC50 | SMILES
2.85 µM | Cc1cccc([C@H](CO)Nc2nc(=O)n(C3CCOCC3)c(=O)[nH]2)c1 [Example 317]
0.24 µM | CC(C#N)c1cccc([C@H](C)Nc2nc(=O)n(C3CCOCC3)c(=O)[nH]2)c1 (stereo partly drawn) [Example 277]
1.03 µM | C[C@@H](Nc1nc(=O)n(C2CCOCC2)c(=O)[nH]1)c1ccc(C(F)(F)F)cc1 [Example 333]
1.87 µM | CC(C)n1c(=O)nc(N[C@@H](C)c2cccc(C(C)(C)O)c2)[nH]c1=O [Example 307]
2.96 µM | CC(C)n1c(=O)nc(N[C@H](c2ccc(F)cc2F)C(F)F)[nH]c1=O [Example 262]
1.83 µM | C[C@H](Nc1nc(=O)n([C@H]2CC[C@@H](F)CC2)c(=O)[nH]1)C1CCCCC1 [Example 86]
0.69 µM | C[C@H](Nc1nc(=O)n(CC(F)(F)F)c(=O)[nH]1)C1CCCCC1 [Example 16]
5.5 µM | CNC(=O)N1CCC(n2c(=O)nc(N[C@@H](C)c3cccc(C)c3)[nH]c2=O)CC1 [Example 245]
0.24 µM | Cc1cccc(C(C)Nc2nc(=O)n(C3CCOCC3)c(=O)[nH]2)c1 (stereo not drawn) [Example 133]
1.16 µM | C[C@H](Nc1nc(=O)n(C2CCOCC2)c(=O)[nH]1)c1cccc(C2CN(C(=O)OC(C)(C)C)C2)c1 [Example 336]
1.21 µM | Cc1noc(C)c1-c1cccc([C@H](C)Nc2nc(=O)n(C3CCOCC3)c(=O)[nH]2)c1 [Example 198]
1.18 µM | CO[C@@H]1COCC[C@H]1n1c(=O)nc(N[C@@H](C)c2cccc(C)c2)[nH]c1=O [Example 299]
0.71 µM | C[C@H](Nc1nc(=O)n([C@H](C)C(F)(F)F)c(=O)[nH]1)c1ccc(Cl)c(Cl)c1 [Example 323]
2.07 µM | Cc1nccn1-c1cccc([C@H](C)Nc2nc(=O)n(C3CCOCC3)c(=O)[nH]2)c1 [Example 203]
0.72 µM | Cc1cccc([C@@H](Nc2nc(=O)n(C3CCOCC3)c(=O)[nH]2)C(F)(F)F)c1 [Example 279]
2.81 µM | CC(C)n1c(=O)nc(N[C@@H](C)c2cccc(C3CCNCC3)c2)[nH]c1=O [Example 293]

IC50 | SMILES
5.43 µM | Cc1cnn(-c2cccc([C@H](C)Nc3nc(=O)n(C4CCOCC4)c(=O)[nH]3)c2)c1 [Example 204]
1.49 µM | Cc1cc(C)cc([C@H](C)Nc2nc(=O)n(C3CCOCC3)c(=O)[nH]2)c1 [Example 56]
4.93 µM | CC(Nc1nc(=O)n(C2CCOCC2)c(=O)[nH]1)c1ccc(C2CC2)cc1 (stereo not drawn) [Example 137]
12.3 µM | CC(Nc1nc(=O)n(C2CCOCC2)c(=O)[nH]1)c1ccc(CO)cc1 (stereo not drawn) [Example 140]
1 µM | CC(C)c1cccc([C@H](C)Nc2nc(=O)n(C3CCOCC3)c(=O)[nH]2)c1 [Example 308]
4.7 µM | CC(Nc1nc(=O)n(C2CCOCC2)c(=O)[nH]1)c1cccc(C(F)(F)F)c1 (stereo not drawn) [Example 130]
9 µM | CC(Nc1nc(=O)n(C2CCOCC2)c(=O)[nH]1)C1CC2(CCC2)C1 (stereo not drawn) [Example 110]
7.08 µM | CC(C)C(=O)N1CCC(n2c(=O)nc(N[C@@H](C)C3CCCCC3)[nH]c2=O)CC1 [Example 234]
0.76 µM | CC(C)n1c(=O)nc(N[C@H](c2cccc(C3CN(CC(F)(F)F)C3)c2)C(F)F)[nH]c1=O [Example 261]
6.79 µM | C=Cc1ccc(C(C)Nc2nc(=O)n(C3CCOCC3)c(=O)[nH]2)cc1 (stereo not drawn) [Example 141]
0.49 µM | C[C@H](Nc1nc(=O)n(C2CCOCC2)c(=O)[nH]1)c1cccc(OC(F)(F)F)c1 [Example 202]
0.88 µM | CC(=O)N1CCC(n2c(=O)nc(N[C@@H](C)c3cccc(C)c3)[nH]c2=O)CC1 [Example 243]
0.36 µM | C[C@H](Nc1nc(=O)n(C2CCOCC2)c(=O)[nH]1)c1cccc(C2CN(CC(F)(F)F)C2)c1 [Example 288]
1.3 µM | C[C@H](Nc1nc(=O)n(C2CCOCC2)c(=O)[nH]1)c1cccc(N2CCCCC2)c1 [Example 216]
1.08 µM | Cc1cc([C@H](C)Nc2nc(=O)n(C3CCOCC3)c(=O)[nH]2)ccc1Cl [Example 330]
10.6 µM | CC(Nc1nc(=O)n(C2CCOCC2)c(=O)[nH]1)c1ccccc1O (stereo not drawn) [Example 101]

Second part, the compound before the results:

SMILES | IC50
Cc1cc([C@H](C)Nc2nc(=O)n([C@H]3CCOC[C@H]3F)c(=O)[nH]2)ccc1F [Example 297] | 1.59 µM
CCC(Nc1nc(=O)n(C2CCOCC2)c(=O)[nH]1)c1cccc(C)c1 (stereo not drawn) [Example 292] | 0.91 µM
COC(=O)N1CCC(n2c(=O)nc(N[C@@H](C)c3cccc(C)c3)[nH]c2=O)CC1 [Example 242] | 1.23 µM
CC(Nc1nc(=O)n(C2CCNCC2)c(=O)[nH]1)c1ccc(F)cc1 (stereo not drawn) [Example 188] | 4.41 µM
Cc1cccc([C@H](C)Nc2nc(=O)n([C@@H]3CCOC[C@@H]3F)c(=O)[nH]2)c1 [Example 315] | 1.47 µM
C[C@H](Nc1nc(=O)n(C2CCOCC2)c(=O)[nH]1)c1cccc(C2=CCN(C(=O)OC(C)(C)C)CC2)c1 [Example 210] | 3.3 µM
Cc1cccc([C@H](C)Nc2nc(=O)n(C3CCOC3)c(=O)[nH]2)c1 (stereo partly drawn) [Example 95] | 7.32 µM
CC(Nc1nc(=O)n(C2CCOCC2)c(=O)[nH]1)c1ccccc1F (stereo not drawn) [Example 121] | 2.62 µM
Cc1ccc(F)c([C@H](C)Nc2nc(=O)n([C@H](C3CC3)C(F)(F)F)c(=O)[nH]2)c1 [Example 303] | 0.56 µM
C[C@H](Nc1nc(=O)n(C2CCC(O)C2)c(=O)[nH]1)C1CCCCC1 (stereo partly drawn) [Example 232] | 8.35 µM
Cc1ccc(F)c([C@H](C)Nc2nc(=O)n([C@@H](C3CC3)C(F)(F)F)c(=O)[nH]2)c1 [Example 312] | 1.44 µM
Cc1ccccc1C(C)Nc1nc(=O)n(C2CCNCC2)c(=O)[nH]1 (stereo not drawn) [Example 189] | 6.72 µM
C[C@H](Nc1nc(=O)n([C@@H]2CCOC[C@@H]2F)c(=O)[nH]1)c1cccc(C(F)(F)F)c1 [Example 309] | 1.61 µM
CC(Nc1nc(=O)n(C2CCOCC2)c(=O)[nH]1)c1cccc(Br)c1 (stereo not drawn) [Example 120] | 1.58 µM
Cc1ccc(F)c([C@H](C)Nc2nc(=O)n([C@H](C)C(F)(F)F)c(=O)[nH]2)c1 [Example 302] | 0.88 µM
Cc1ccc(C(C)Nc2nc(=O)n(C3CCOCC3)c(=O)[nH]2)cc1 (stereo not drawn) [Example 134] | 3.64 µM
C[C@H](Nc1nc(=O)n(C2CCOCC2)c(=O)[nH]1)c1ccc(C(F)F)cc1 [Example 157] | 1 µM

SMILES | IC50
C[C@H](Nc1nc(=O)n(C(C2CC2)C(F)(F)F)c(=O)[nH]1)C1CCCCC1 (stereo partly drawn) [Example 18] | 0.48 µM
C[C@H](Nc1nc(=O)n(C2CCOCC2)c(=O)[nH]1)c1cccc(C2=CCOCC2)c1 [Example 208] | 1.6 µM
C[C@H](Nc1nc(=O)n(C2CCCCC2)c(=O)[nH]1)C1CCCCC1 [Example 60] | 7.41 µM
CC(=O)N1CCC(c2cccc([C@H](C)Nc3nc(=O)n(C4CCOCC4)c(=O)[nH]3)c2)CC1 [Example 329] | 1.24 µM
Cc1ccc(F)c([C@H](C)Nc2nc(=O)n([C@H]3CCOC[C@H]3F)c(=O)[nH]2)c1 [Example 314] | 0.77 µM
CC(Nc1nc(=O)n(C2CCOCC2)c(=O)[nH]1)c1cccc(-n2cccn2)c1 (stereo not drawn) [Example 217] | 3.66 µM
C[C@H](Nc1nc(=O)n(C2CCOCC2)c(=O)[nH]1)c1ccc(F)c(F)c1 [Example 164] | 1.36 µM
Cc1cc([C@H](C)Nc2nc(=O)n([C@@H]3CCOC[C@@H]3F)c(=O)[nH]2)ccc1F [Example 296] | 0.86 µM
C[C@H](Nc1nc(=O)n(C2CCOCC2)c(=O)[nH]1)c1cccc([C@@H](C)O)c1 [Example 286] | 0.24 µM
CC(Nc1nc(=O)n(C2CCOCC2)c(=O)[nH]1)c1ccc2c(c1)OCO2 (stereo not drawn) [Example 128] | 1.88 µM
C[C@H](Nc1nc(=O)n(C2CCOCC2)c(=O)[nH]1)c1cccc(-c2ccccc2F)c1 [Example 224] | 0.7 µM
Cc1ccc([C@H](C)Nc2nc(=O)n(C3CCOCC3)c(=O)[nH]2)cc1F [Example 161] | 1.05 µM
Cc1cccc(C(C)Nc2nc(=O)n(C3CCNCC3)c(=O)[nH]2)c1 (stereo not drawn) [Example 187] | 3.34 µM
Cc1cccc([C@H](C)Nc2nc(=O)n(C3CCN(S(C)(=O)=O)CC3)c(=O)[nH]2)c1 [Example 244] | 1.23 µM
C[C@H](Nc1nc(=O)n(-c2ccccn2)c(=O)[nH]1)C1CCCCC1 [Example 57] | 7.4 µM
CC(C)n1c(=O)nc(N[C@H](c2cccc(C(O)C3CC3)c2)C(F)F)[nH]c1=O (stereo partly drawn) [Example 265] | 1.1 µM
C[C@H](Nc1nc(=O)n(C2CCOCC2)c(=O)[nH]1)c1ccccc1 [Example 46] | 3.9 µM

Reference: US20240262804A1, “NITROGEN-CONTAINING HETEROCYCLIC KETONES, PREPARATION METHODS AND MEDICINAL USES THEREOF” (Hansoh Bio LLC, priority 2021, published 2024)
